Laboratory results: patent US20110119780A1, “SCREENING FOR NON-GENOTOXIC CARCINOGENS” (priority 2008, published 2011)
“And” between values parts separate entries of the source, which are not always exact repeats. Identical values can stand only once.

Experiments:
[1] = system: Cyp2b10; test: Hepatic P450 induction: PROD and BROD in liver microsomes; assay type: in vivo, mouse; conditions: 80 mg/kg IP x4 days
Protocol: (§1) Each assay was performed on individual liver microsomes. Values are expressed as Mean±SD (n=9/10).
BROD and PROD are markers of Cyp2b10 activity in the mouse. […] However, PROD or BROD activities were not altered in the PXRKO/CARKO mice upon exposure to PB. Overall, PB induced P450 catalytic activities in the WT and huPXR/huCAR mouse lines, but not in the animals which were devoid of these receptors.

[2] = PXR/CAR-dependent hepatomegaly by PB (body, liver weights); conditions: 80 mg/kg IP x4 days; for Body weight - Day 1 / Body weight - Day 5 / Liver weight / Liver/Body weight Ratio: Mean ± SD
Source text: In order to assess whether humanised PXR/CAR mice mimic the response to PB in humans, the huPXR/huCAR and PXRKO/CARKO mouse models were used. The mutant mouse strains were obtained from Artemis. The WT mouse strain C57BL/6J was obtained from Harlan (UK). All animals were between 10 and 16 weeks of age.The following parameters were studied: • Liver/body weight ratios • BrdU incorporation analysed as a measure of cell proliferation • Haematoxylin and eosin (H&E) liver histopathology • Expression and activity of P450s by SDS-PAGE and Western blotting in liver microsomes • Apoptotic indices as analysed by TUNEL assay in the liver
(§2) The study consisted of 6 groups with 10 WT mice per group, 9-10 PXRKO/CARKO mice per group and 9 huPXR/huCAR mice per group (Table 19). […] On Day 1 all animals were dosed with either 80 mg/kg PB/saline or saline alone by intraperitoneal injection for 4 days as detailed in Table 19.
Following treatment with PB or the vehicle, the mice were sacrificed and their livers were removed and weighed.

[3] = system: Cyp2b10 and Cyp3a11; test: Cyp2b10 and Cyp3a11 protein in pooled liver microsomes by Western blotting, PB; assay type: in vivo, mouse
Protocol: Liver microsomes (0.3 ug) from each animal were pooled (n=9/10) for wild type, huPXR/huCAR and PXRKO/CARKO mice and characterised for Cyp2b10 and Cyp3a11 by immunoblotting using rabbit polyclonal CH4 (1:2000 dilution) and CH32 antibodies (1:2000 dilution), respectively (C. Henderson, University of Dundee, UK); +ve, control was either purified recombinant his-tagged Cyp3a11 membranes (0.1 pmol/u.l) or purified recombinant his-tagged Cyp2b10 membranes (O.Olpmol/u.l). Blots were developed using ECL and exposed for 30 secs.

[4] = system: Cyp3a11; test: Hepatic P450 induction: benzyloxyquinoline debenzylation (BQ) in liver microsomes; assay type: in vivo, mouse; conditions: 80 mg/kg IP x4 days
Protocol: as §1

[5] = system: Cyp3a11 and Cyp2b10; test: Inductive effect of Phenobarbital in a panel of PXR/CAR knockout and humanised mice
[6] = system: hepatocellular proliferation; test: Hepatic cell proliferation, BrdU incorporation (S-phase labelling index); conditions: for % mean (S-phase labelling index relative to control of the same mouse line = 100) / % BrDu positive Cells, Mean / % BrDu positive Cells (hepatic S-phase labelling index), individual mouse: PB-treated; for % BrDu positive Cells, Mean: group mean; for % BrDu positive Cells (hepatic S-phase labelling index), individual mouse: individual animals
Protocol: Osmotic pumps containing BrdU (15 mg/ml/PBS) were implanted into WT, huPXR/huCAR and PXRKO/CARKO mice prior to PB treatment (80 mg/kg/4 days/IP). Livers sections were labelled using a Brdu antibody (Dako). All microscopic images were captured at a magnification of 40×. Data represents random sampling of 10 images per lobes (2) counting approximately 180,000 cells/animal group, as according to Pat-0013-0014. Values are expressed as Mean±SD, n=9-10 for control mice, n=8-9 for PB-treated mice.
as §2
All mouse liver and duodenum sections were analysed for BrdU incorporation as a measure of cell proliferation. The method used was an indirect BrdU labelling assay.

[7] = system: hepatocellular hypertrophy; test: H&E analysis of liver sections, PB; assay type: in vivo, mice; conditions: 80 mg/kg IP x4 days
Source text: Portal vein (P) and central vein (C) are labelled. A 20× objective lens was used to capture the images.
Two samples of the liver (one from the lobe, one from the median lobe) and one sample of the small intestine were taken and preserved in 4% neutral buffered formaldehyde (NBF). The preserved liver samples of all mice of all groups were trimmed, processed and embedded in paraffin. The paraffin-embedded samples were sent to Progenix, Inverkeithing, UK where they were sectioned at a nominal thickness of about 5 æm and then stained with haematoxylin and eosin (H&E). One section of each organ sample was examined by Dr. Ortwin Vogel, Consultant Pathologist, Kiel, Germany. Subsequent to his histopatholoical analysis of all H&E stained mouse livers and small intestines, Dr. Vogel reported the following finding;

[8] = system: hepatocellular apoptosis; test: Liver in situ cell death, TUNEL labelling assay (apoptotic indices); assay type: in vivo; conditions: WT, huPXR/huCAR and PXRKO/CARKO mice; Student's t-test
Source text: Livers sections were labelled using a TUNEL in situ cell detection kit (Roche). […] Data represents random sampling of 20 images per lobes (2) counting approximately 380,000 cells/animal group.
However, no such consistency has been observed in mice. An indirect TUNEL labelling assay was used to analyse hepatic in situ death (FIG. 9/Table 21). The present study has shown a marker variation in apoptotic indices in mouse liver. Thus, small (e.g. 50%) compound-induced decreases, upon a low background, were not readily demonstrable.

[9] = system: Cyp1a1/1a2; test: Hepatic P450 induction: MROD and EROD in liver microsomes; conditions: 80 mg/kg IP x4 days
Protocol: as §1
P450 catalytic activities in the liver microsomal fractions were quantified. For the quantification of mouse Cyp2b10 and Cyp3a11 activities, the dealkylation of pentoxyresofurin (PROD) and the debenzylation of benzyloxyquinoline (BQ) activities, respectively. In addition, […] (BROD), methoxyresorufin-O-demethylase (MROD) and 7-ethoxyresorufin-)-deethylase (EROD) activities were also measured and evaluated (see FIG. 11).
EROD activity is indicative of Cyp1a1/1a2 and Cyp1b1 in the mouse, whereas MROD is a substrate for Cyp1a2. However, other isoforms may be contributing to the measured activities.

Compound: CCC1(c2ccccc2)C(=O)NC(=O)NC1=O [PB, Phenobarbital]
- PROD or BROD activities ([1]; PXRKO/CARKO mice): not altered
- Cyp2b10 induction (BROD and PROD activities) ([1]; WT and huPXR/huCAR mouse lines, at similar levels): marker Cyp2b10 induction was observed
- Body weight - Day 1, % mean own control ([2]; PXRKO/CARKO mice): (100 ± 8) %
- Body weight - Day 5, % mean own control ([2]; PXRKO/CARKO mice): (98 ± 8) %
- Liver weight, % mean own control ([2]; PXRKO/CARKO mice): (98 ± 16) %
- Liver/Body weight Ratio, % mean own control ([2]; PXRKO/CARKO mice): (100 ± 9) %
- Body weight - Day 1 ([2]; PXRKO/CARKO mice): 27.2 ± 2.2 g
- Body weight - Day 5 ([2]; PXRKO/CARKO mice): 26.6 ± 2.2 g
- Liver weight ([2]; PXRKO/CARKO mice): 1.42 ± 0.23 g
- Liver/Body weight Ratio ([2]; PXRKO/CARKO mice): 5.3 ± 0.4
- Body weight - Day 1, % mean own control ([2]; WT mice): (106 + 6) %
- Body weight - Day 5, % mean own control ([2]; WT mice): (84 ± 5) %
- Liver weight, % mean own control ([2]; WT mice): (101 ± 6) %
- Body weight - Day 1 ([2]; WT mice): 26.4 ± 1.8 g
- Body weight - Day 5 ([2]; WT mice): 23.2 ± 1.3 g
- Liver weight ([2]; WT mice): 1.44 ± 0.09 g
- Liver/Body weight Ratio ([2]; WT mice): 6.2 ± 0.2
- Body weight - Day 1, % mean own control ([2]; huPXR/huCAR mice): (104 ± 5) %
- Body weight - Day 5, % mean own control ([2]; huPXR/huCAR mice): (99 ± 6) %
- Liver weight, % mean own control ([2]; huPXR/huCAR mice): (121 ± 11) %
- Body weight - Day 1 ([2]; huPXR/huCAR mice): 26.3 ± 1.2 g
- Body weight - Day 5 ([2]; huPXR/huCAR mice): 25.4 ± 1.5 g
- Liver weight ([2]; huPXR/huCAR mice): 1.69 ± 0.16 g
- Liver/Body weight Ratio ([2]; huPXR/huCAR mice): 6.7 ± 0.6
- Cyp2b10 and Cyp3a11 protein induced (Western blotting) ([3]; PXRKO/CARKO animals): not
- Cyp2b10 and Cyp3a11 protein (Western blotting) ([3]; WT and humanised mouse lines): induced
- Cyp3a11 induction (BQ activity) ([4]; PXRKO/CARKO mice): absence of Cyp3a11 induction
- BQ activity ([4]; WT animals, liver microsomes): marginal increase
- BQ activity, increase ([4]; huPXR/huCAR mice, liver microsomes): 5 fold
- activation of Cyp3a11 and Cyp2b10 in vivo [5]: predominantly CAR-dependent
- % mean (S-phase labelling index relative to control of the same mouse line = 100) ([6]; PXRKO/CARKO mice): 144%
- % BrDu positive Cells, Mean ([6]; PXRKO/CARKO mice): 2.83%
- % BrDu positive Cells (hepatic S-phase labelling index), individual mouse ([6]; PXRKO/CARKO mice): 2.16% and 1.98% and 1.82% and 2.30% and 3.77% and 5.10% and 3.71% and 1.88% and 3.06% and 2.51%
- % mean (S-phase labelling index relative to control of the same mouse line = 100) ([6]; WT mice): 531%
- % BrDu positive Cells, Mean ([6]; WT mice): 9.30%
- % BrDu positive Cells (hepatic S-phase labelling index), individual mouse ([6]; WT mice): 9.45% and 5.54% and 16.69% and 6.32% and 9.50% and 8.09% and 7.64% and 13.60%
- hepatocellular labelling index (S-phase), increase ([6]; WT mice, 80 mg/kg IP x4 days, BrdU): approximately 5 fold
- % mean (S-phase labelling index relative to control of the same mouse line = 100) ([6]; huPXR/huCAR mice): 104%
- % BrDu positive Cells, Mean ([6]; huPXR/huCAR mice): 2.00%
- % BrDu positive Cells (hepatic S-phase labelling index), individual mouse ([6]; huPXR/huCAR mice): 0.37% and 0.-18% and 1.19% and 1.86% and 3.GO and 1.98% and 3.18% and 3.24% and 2.13%
- effect on cell proliferation (BrdU labelling) ([6]; huPXR/huCAR or PXRKO/CARKO mice, 80 mg/kg IP x4 days): no effect
- hepatocellular hypertrophy (H&E) ([7]; PXRKO/CARKO mice): no unequivocal evidence
- liver growth response (hypertrophy, hyperplasia), conclusion ([7]; PXRKO/CARKO mice): did not induce hepatomegaly
- liver growth response (hypertrophy, hyperplasia), conclusion ([7]; WT mice): induced hypertrophy and hyperplasia
- centrilobular hepatocellular hypertrophy (H&E) ([7]; huPXR/huCAR and WT animals): slight to moderate
- liver growth response (hypertrophy, hyperplasia), conclusion ([7]; huPXR/huCAR mice): induced hypertrophy but not hyperplasia
- Hepatic apoptotic indices (TUNEL), PB-treated vs control [8]: no statistical significance found
- MROD and EROD enzyme activities ([9]; PXRKO/CARKO line): no increase
- MROD and EROD enzyme activities ([9]; WT and huPXR/huCAR mice): increased
